Here are results for 16 compounds from patent US20170037028A1 (BAYER PHARMA AKTIENGESELLSCHAFT, priority 2013, published 2017).

In this assay the target is T1, GLUT1 (Homo sapiens, UniProt P11166).
T1 sequence (P11166 1-492): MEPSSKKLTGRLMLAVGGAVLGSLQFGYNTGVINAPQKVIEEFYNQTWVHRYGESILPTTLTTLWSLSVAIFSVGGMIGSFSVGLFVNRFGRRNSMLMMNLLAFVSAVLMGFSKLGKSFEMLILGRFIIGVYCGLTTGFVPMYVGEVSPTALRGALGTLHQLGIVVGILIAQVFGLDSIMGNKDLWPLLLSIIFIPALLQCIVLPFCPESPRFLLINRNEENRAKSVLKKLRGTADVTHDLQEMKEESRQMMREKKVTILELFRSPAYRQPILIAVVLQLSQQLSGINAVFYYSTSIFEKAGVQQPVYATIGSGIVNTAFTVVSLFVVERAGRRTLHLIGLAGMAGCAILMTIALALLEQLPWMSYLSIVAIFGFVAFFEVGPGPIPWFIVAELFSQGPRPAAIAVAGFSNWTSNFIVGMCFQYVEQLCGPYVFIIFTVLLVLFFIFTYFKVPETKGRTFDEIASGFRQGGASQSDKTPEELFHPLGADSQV
The assay can be described thus: Indirect measurement of GLUT1 activity by quantification of intracellular ATP levels (glucose induced ATP increase). It is filed as cell-based. The arrangement: endogenous in cells; host or cells: DLD1 or CHO-K1. The settings on record: read-out: IC50 regarding glucose induced ATP increase (GLUT1 inhibition). The procedure, abridged: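 DLD1 or CHO-K1 cells were starved overnight in glucose-free medium with 1% FCS, then combined with an oxidative phosphorylation inhibitor. GLUT1 activity was read as glucose-induced ATP increase, GLUT2 as fructose-induced. Intracellular ATP was quantified by CellTiter-Glo luminescence.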
Regarding `Cc1nn(Cc2ccc(C#N)cc2F)c(C)c1NC(=O)c1cc(C(N)=O)nc2cccc(F)c12` [Example 301, N^4-[1-(4-cyano-2-fluorobenzyl)-3,5-dimethyl-1H-pyrazol-4-yl]-5-fluoroquinoline-2,4-dicarboxamide], the IC50 turned out to be 0.5 nM.
Regarding `Cc1nn(Cc2cccc(C#N)c2)c(C)c1NC(=O)c1cc(C(N)=O)nc2cc(F)c(Cl)cc12` [Example 1456], the IC50 worked out at 1.5 nM.
With `COC(=O)[C@@H](NC(=O)c1ccc(Cn2nc(C)c(NC(=O)c3cc(C(F)(F)F)nc4ccc(Br)cc34)c2C)cc1)[C@@H](C)O` [Example 1104] the figure was 47.8 nM; with `Cc1c(NC(=O)c2cc(C(N)=O)nc3cc(F)c(Cl)cc23)c(C(F)(F)F)nn1Cc1ccc(S(C)(=O)=O)cc1` [Example 1438], 3.1 nM.
With `Cc1nn(Cc2ccccc2C#N)c(C)c1NC(=O)c1cc(C(N)=O)nc2ccc(F)cc12` [Example 221, N^4-[1-(2-cyanobenzyl)-3,5-dimethyl-1H-pyrazol-4-yl]-6-fluoroquinoline-2,4-dicarboxamide] the figure was 6.7 nM; with `Cc1c(NC(=O)c2cc(C(N)=O)nc3cc(Cl)ccc23)c(C(F)(F)F)nn1Cc1ccc(C#N)cc1` [Example 246, 7-chloro-N^4-[1-(4-cyanobenzyl)-5-methyl-3-(trifluoromethyl)-1H-pyrazol-4-yl]quinoline-2,4-dicarboxamide], 2.6 nM; with `Cc1c(NC(=O)c2cc(C(N)=O)nc3cccc(F)c23)c(C(F)(F)F)nn1Cc1ccccc1C#N` [Example 273, N^4-[1-(2-cyanobenzyl)-5-methyl-3-(trifluoromethyl)-1H-pyrazol-4-yl]-5-fluoroquinoline-2,4-dicarboxamide], 5.9 nM.
With `COc1cc(C#N)ccc1Cn1nc(C)c(NC(=O)c2cc(C(N)=O)nc3cc(F)ccc23)c1C` [Example 1649] the figure was 67.2 nM; with `Cc1c(NC(=O)c2cc(C(N)=O)nc3cc(F)c(Cl)cc23)c(C(F)(F)F)nn1Cc1cc(C2CC2)on1` [Example 1551], 11.1 nM; with `Cc1nn(Cc2ccc(C(=O)NCC(C)(C)O)cc2)c(C)c1NC(=O)c1cc(C(F)(F)F)nc2ccc(Br)cc12` [Example 1085], 31.2 nM.
As for `CCc1c(NC(=O)c2cc(C(N)=O)nc3cc(F)c(Cl)cc23)c(C(F)(F)F)nn1Cc1ccc(C#N)cc1` [Example 314, 6-chloro-N^4-[1-(4-cyanobenzyl)-5-ethyl-3-(trifluoromethyl)-1H-pyrazol-4-yl]-7-fluoroquinoline-2,4-dicarboxamide], the IC50 stood at 1.6 nM.
Consider `CCc1cc(Cn2nc(C)c(NC(=O)c3cc(C(N)=O)nc4cc(F)ccc34)c2C)on1` [Example 1532], for which the IC50 was found to be 16.1 nM.
With `Cc1c(NC(=O)c2cc(C(N)=O)nc3cc(F)ccc23)c(C(F)(F)F)nn1Cc1ccccc1C#N` [Example 272, N^4-[1-(2-cyanobenzyl)-5-methyl-3-(trifluoromethyl)-1H-pyrazol-4-yl]-7-fluoroquinoline-2,4-dicarboxamide] the figure was 2.5 nM; with `Cc1nn(Cc2ccccc2C#N)c(C)c1NC(=O)c1cc(C(F)(F)F)nc2c(Cl)cc(Cl)cc12` [Example 68, 6,8-dichloro-N-[1-(2-cyanobenzyl)-3,5-dimethyl-1H-pyrazol-4-yl]-2-(trifluoromethyl)quinoline-4-carboxamide], 148 nM; with `Cc1c(NC(=O)c2cc(C(N)=O)nc3cc(F)c(Cl)cc23)c(C(F)(F)F)nn1Cc1ccc(C#N)cc1F` [Example 303, 6-chloro-N^4-[1-(4-cyano-2-fluorobenzyl)-5-methyl-3-(trifluoromethyl)-1H-pyrazol-4-yl]-7-fluoroquinoline-2,4-dicarboxamide], 1.8 nM.
`Cc1c(NC(=O)c2cc(C(N)=O)nc3ccccc23)c(C(F)(F)F)nn1Cc1ccccc1OC(F)(F)F` [Example 1705]: the IC50 was determined as 172 nM.

As usually defined, the IC50 is the concentration that gives 50% inhibition.
